Reference: ChEMBL document CHEMBL4680225, “Design and development of ((4-methoxyphenyl)carbamoyl) (5-(5-nitrothiophen-2-yl)-1,3,4-thiadiazol-2-yl)amide analogues as Mycobacterium tuberculosis ketol-acid reductoisomerase inhibitors” (Eur J Med Chem, 2020)
≈ marks a conversion by molar mass, not a printed value.

Key:
[1] = system: Mycobacterium tuberculosis; assay: Antitubercular activity against 6-weeks nutrient starved phase cultures of Mycobacterium tuberculosis H37Rv assessed as log reduction in bacterial growth at 10 uM treated for 7 days measured after 4 weeks relative to control; format: functional; conditions: time 5 weeks
[2] = system: Mycobacterium tuberculosis; assay: Antibiofilm activity against Mycobacterium tuberculosis assessed as log reduction in bacterial growth at 10 uM measured after 1 week relative to control; format: functional, H37Rv; conditions: time 1 weeks
[3] = system: Mycobacterium tuberculosis; assay: Inhibition of N-terminal 6His-taggged Mycobacterium tuberculosis KARI expressed in Escherichia coli BL21 at 100 uM using 2-acetolactate as substrate preincubated for 30 mins followed by substrate addition in presence of NADPH relative to control
[4] = Inhibition of N-terminal 6His-taggged Mycobacterium tuberculosis KARI expressed in Escherichia coli BL21 using 2-acetolactate as substrate preincubated for 30 mins followed by substrate addition in presence of NADPH
[5] = system: Mycobacterium tuberculosis; assay: Antitubercular activity against Mycobacterium tuberculosis H37Rv measured after 1 week by microplate alamar blue assay; format: functional; conditions: 168 h, time 1 weeks
HEK293 = assay: Cytotoxicity against HEK293 cells assessed as reduction in cell viability measured after 48 hrs by MTT assay; format: cell-based; conditions: Homo sapiens, HEK293, 48 h
[6] = Protection index, ratio IC50 for HEK293 cells to MIC for antitubercular activity against Mycobacterium tuberculosis H37Rv
[7] = system: Mycobacterium tuberculosis; assay: Antitubercular activity against Mycobacterium tuberculosis H37Rv infected in mouse primary macrophages assessed as log reduction in bacterial growth at 10 uM measured after 48 hrs relative to control; format: functional, Primary macrophage
[8] = system: Mycobacterium tuberculosis; assay: Antitubercular activity against early logarithmic phase cultures of Mycobacterium tuberculosis H37Rv treated for 6 days and measured 2 days post last dose; format: functional, organism-based; conditions: time 8.0 day
[9] = system: Mycobacterium tuberculosis; assay: Antimycobacterial activity against dormant Mycobacterium tuberculosis H37Rv incubated for 7 days under nutrient deprived condition; format: functional, organism-based; conditions: time 7.0 day
[10] = system: Mycobacterium tuberculosis; assay: Antimycobacterial activity against dormant Mycobacterium tuberculosis H37Rv under nutrient deprived condition; format: functional, organism-based; conditions: TDE = time-dependent effect
[11] = system: Mycobacterium tuberculosis; assay: Antitubercular activity against early logarithmic phase cultures of Mycobacterium tuberculosis H37Rv at 1.56 to 100 uM; format: functional, organism-based; conditions: dose 1.56-100 µM, TDE = time-dependent effect

Compound	log(activity) [1]	log(activity) [2]	inhibition [3] [%]	Ki [4] [µM]	MIC [5] [µM]	IC50 (HEK293) [µM]	PI [6]	log(activity) [7]	Activity [8]	Activity [9]	Activity [10]	Activity [11]
COc1c(N2C[C@@H]3CCCN[C@@H]3C2)c(F)cc2c(=O)c(C(=O)O)cn(C3CC3)c12 [MOXIFLOXACIN]	2	1.8	–	–	–	–	–	–	–	–	–	–
COc1ccc(NC(=S)Nc2nnc(-c3ccc([N+](=O)[O-])o3)s2)cc1	2.5	1.8	> 50	2.02	0.78 (≈ 0.294 µg/mL)	86	110.2	1.7	Dose-dependent effect	Dose-dependent effect	Tde	–
O=[N+]([O-])c1ccc(-c2nnc(NC(=S)Nc3ccc(F)cc3)s2)o1	2.3	1.3	> 50	5.48	0.78 (≈ 0.285 µg/mL)	72.5	92.9	1.9	Dose-dependent effect	–	–	–
NNC(=O)c1ccncc1 [ISONIAZID]	1.5	1	–	–	0.4 (≈ 0.0549 µg/mL)	–	–	2.5	–	–	–	–
CC(=O)c1ccc(S(=O)(=O)Nc2nnc(-c3ccc([N+](=O)[O-])o3)s2)cc1	2.1	1.1	> 50	4.72	1.56 (≈ 0.615 µg/mL)	57.1	36.6	1.6	–	Dose-dependent effect	Tde	Tde
CC[C@@H](CO)NCCN[C@@H](CC)CO [ETHAMBUTOL]	–	–	–	–	7.63 (≈ 1.56 µg/mL)	–	–	–	–	–	–	–
O=[N+]([O-])c1ccc(-c2nnc(NC(=S)Nc3ccc(Cl)cc3)s2)s1	1	1.2	> 50	8.35	25 (≈ 9.95 µg/mL)	102	4.1	–	–	–	–	–
COc1ccc(NC(=S)Nc2nnc(-c3ccc([N+](=O)[O-])s3)s2)cc1	1.8	1.5	> 50	9.27	0.78 (≈ 0.307 µg/mL)	68.2	87.4	2.2	–	–	–	–
COc1ccc(NC(=O)Nc2nnc(-c3ccc([N+](=O)[O-])s3)s2)cc1	–	–	–	3.06	–	–	–	–	–	–	–	–
CO[C@H]1/C=C/O[C@@]2(C)Oc3c(C)c(O)c4c(O)c(c(/C=N/N5CCN(C)CC5)c(O)c4c3C2=O)NC(=O)/C(C)=C\C=C\[C@H](C)[C@H](O)[C@@H](C)[C@@H](O)[C@@H](C)[C@H](OC(C)=O)[C@@H]1C [RIFAMPIN]	1.8	0.9	–	–	0.5 (≈ 0.411 µg/mL)	–	–	–	–	–	–	–
